In patent US10752609B2, “GSK-3 inhibitors” (priority 2016, dated 2020) one finds IC50 data, which are given here for 29 compounds.

Like-named read-outs stand apart in the source and are kept apart here.

In one test the target is GSK3β (Homo sapiens, UniProt P49841). The test can be described thus: GSK3β kinase assay (Caliper LabChip3000 mobility shift, fluoresceinated peptide substrate). Format: biochemical.
Another test concerns pTau. Description: pTau assay (no method described). Format: cell-based.
Another test addresses GSK3α (Homo sapiens, UniProt P49840). The test can be described thus: GSK3α kinase assay (Caliper LabChip3000 mobility shift, fluoresceinated peptide substrate).
[1] abbreviates: 250 pM enzyme, 20 uM ATP, 1.5 uM peptide, 20 hours room temperature, first value of cell GSK3β/GSK3α, read-out: GSK3β (nM), IC50.

GSK3α, sequence (P49840 whole entry, species assumed): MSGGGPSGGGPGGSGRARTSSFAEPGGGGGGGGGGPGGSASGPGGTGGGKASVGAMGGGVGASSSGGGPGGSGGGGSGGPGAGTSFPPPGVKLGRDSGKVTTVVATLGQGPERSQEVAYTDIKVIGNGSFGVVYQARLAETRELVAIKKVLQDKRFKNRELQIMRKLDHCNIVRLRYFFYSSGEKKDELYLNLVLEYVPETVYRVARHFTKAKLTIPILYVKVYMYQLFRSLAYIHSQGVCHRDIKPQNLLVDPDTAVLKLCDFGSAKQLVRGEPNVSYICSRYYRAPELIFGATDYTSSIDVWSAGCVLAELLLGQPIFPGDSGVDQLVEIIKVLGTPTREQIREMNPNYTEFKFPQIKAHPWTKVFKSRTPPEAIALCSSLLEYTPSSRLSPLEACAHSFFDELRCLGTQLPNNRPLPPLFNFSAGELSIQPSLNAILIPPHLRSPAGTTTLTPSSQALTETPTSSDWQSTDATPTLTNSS
GSK3β, sequence (P49841 whole entry, species assumed): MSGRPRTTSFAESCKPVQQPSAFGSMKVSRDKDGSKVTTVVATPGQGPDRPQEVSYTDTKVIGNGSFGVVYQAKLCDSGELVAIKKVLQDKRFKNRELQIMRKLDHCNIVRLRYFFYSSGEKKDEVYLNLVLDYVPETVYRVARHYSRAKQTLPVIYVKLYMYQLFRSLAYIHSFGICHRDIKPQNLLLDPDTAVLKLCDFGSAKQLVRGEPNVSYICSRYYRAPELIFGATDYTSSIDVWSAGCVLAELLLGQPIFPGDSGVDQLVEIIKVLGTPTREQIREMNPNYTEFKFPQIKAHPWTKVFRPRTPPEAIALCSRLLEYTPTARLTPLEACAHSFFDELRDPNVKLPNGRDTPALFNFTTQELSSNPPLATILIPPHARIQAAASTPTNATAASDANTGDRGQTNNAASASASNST
Description for GSK3α: (§1) The kinase assay was performed in V-bottom 384-well plates. […] The reaction was incubated at room temperature for 20 hours and terminated by adding 45 μl of 35 mM EDTA to each sample. The reaction mixture was analyzed on the Caliper LabChip3000 (Caliper, Hopkinton, Mass.) by electrophoretic separation of the unphosphorylated substrate and phosphorylated product. […] Compounds were dissolved at 10 mM in dimethylsulfoxide (DMSO) and evaluated at eleven concentrations. IC50 values were derived by non-linear regression analysis.
Description for GSK3β: as §1

For `O=C(Nc1cnccc1OCC(F)(F)F)c1ccnc(Nc2ccc(F)nc2)n1` [Example 84, 2-((6-Fluoropyridin-3-yl)amino)-N-(4-(2,2,2-trifluoroethoxy)pyridin-3-yl)pyrimidine-4-carboxamide], the IC50 (in general, the concentration that gives 50% inhibition) on GSK3β (setting [1]) amounted to 0.24 nM; in the test with pTau, 4.8 nM; on GSK3α, 0.11 nM.
The corresponding values for `O=C(Nc1cnccc1OCC(F)(F)F)c1ccnc(Nc2ccc(Cl)cc2)n1` [Example 56, 2-((4-Chlorophenyl)amino)-N-(4-(2,2,2-trifluoroethoxy)pyridin-3-yl)pyrimidine-4-carboxamide] are 0.25 nM, 5.9 nM and 0.15 nM.
In the same order, the values of `CC(C)(C)[C@H]1CC[C@@H](Nc2nccc(C(=O)Nc3cnccc3OCC(F)(F)F)n2)CC1` [Example 122] are 8.4 nM, 4200 nM and 12 nM.
In the same order, the values of `O=C(Nc1cnccc1OCC(F)(F)F)c1ccnc(Nc2ccc(C(F)(F)F)cn2)n1` [Example 111, N-(4-(2,2,2-Trifluoroethoxy)pyridin-3-yl)-2-((5-(trifluoromethyl)pyridin-2-yl)amino)pyrimidine-4-carboxamide] are 2.9 nM, 220 nM and 2.2 nM.
With `O=C(Nc1cnccc1OCC(F)(F)F)c1ccnc(NC2CCCC2)n1` [Example 116, 2-(Cyclopentylamino)-N-(4-(2,2,2-trifluoroethoxy)pyridin-3-yl)pyrimidine-4-carboxamide], the half-maximal inhibitory concentration (IC50) came to 0.19 nM at GSK3β (setting [1]), 12 nM in the test on pTau and 0.16 nM on GSK3α.
The corresponding values for `O=C(Nc1cnccc1-c1ccccc1)c1ccnc(Nc2cc(OC(F)F)c(Cl)cc2F)n1` [Example 33, 2-((4-Chloro-5-(difluoromethoxy)-2-fluorophenyl)amino)-N-(4-phenylpyridin-3-yl)pyrimidine-4-carboxamide] are 2.3 nM, 700 nM and 2.1 nM.
Consider `O=C(Nc1cnccc1OCC(F)(F)F)c1ccnc(Nc2ccc3cccnc3c2)n1` [Example 107, 2-(Quinolin-7-ylamino)-N-(4-(2,2,2-trifluoroethoxy)pyridin-3-yl)pyrimidine-4-carboxamide], for which the IC50 at GSK3β (setting [1]) amounted to 0.17 nM; with pTau it was 9.4 nM; on GSK3α, 0.24 nM.
`O=C(Nc1cnccc1-c1ccccc1)c1ccnc(Nc2ccc(OC(F)F)cc2)n1` [Example 13, 2-((4-(Difluoromethoxy)phenyl)amino)-N-(4-phenylpyridin-3-yl)pyrimidine-4-carboxamide]: the IC50 amounted to 0.45 nM at GSK3β (setting [1]), 60 nM in the test with pTau and 0.3 nM on GSK3α.
On to `O=C(Nc1cnccc1-c1ccc(F)cc1)c1ccnc(Nc2ccc(OC(F)F)cc2)n1` [Example 49, 2-((4-(Difluoromethoxy)phenyl)amino)-N-(4-(4-fluorophenyl)pyridin-3-yl)pyrimidine-4-carboxamide], for which the results for the IC50 at GSK3β (setting [1]), in the test on pTau and at GSK3α were 0.48 nM, 74 nM and 0.29 nM, respectively.
In the same order, the values of `N#Cc1ccc(Nc2nccc(C(=O)Nc3cncnc3OCC(F)(F)F)n2)cc1` [Example 66, 2-((4-Cyanophenyl)amino)-N-(4-(2,2,2-trifluoroethoxy)pyrimidin-5-yl)pyrimidine-4-carboxamide] are 1 nM, 22 nM and 0.67 nM.
Consider `N#Cc1ccc(Nc2nccc(C(=O)Nc3cnc(F)cc3N3CCC(F)(F)CC3)n2)cc1` [Example 176, 2-((4-Cyanophenyl)amino)-N-(4-(4,4-difluoropiperidin-1-yl)-6-fluoropyridin-3-yl)pyrimidine-4-carboxamide], for which the IC50 on GSK3β was found to be 0.32 nM; in the test with pTau, 28 nM; at GSK3α, 0.28 nM.
For the compound `N#Cc1ccc(Nc2nccc(C(=O)Nc3cnccc3OCC(F)(F)F)n2)cc1` [Example 57, 2-((4-Cyanophenyl)amino)-N-(4-(2,2,2-trifluoroethoxy)pyridin-3-yl)pyrimidine-4-carboxamide], the IC50 at GSK3β (setting [1]) amounted to 0.08 nM; in the test on pTau it was 1.4 nM; on GSK3α, 0.07 nM.
The corresponding values for `O=C(Nc1cnccc1OCC(F)(F)F)c1ccnc(Nc2ccc(OC(F)(F)F)cc2)n1` [Example 59, N-(4-(2,2,2-Trifluoroethoxy)pyridin-3-yl)-2-((4-(trifluoromethoxy)phenyl)amino)pyrimidine-4-carboxamide] are 0.18 nM, 8.2 nM and 0.21 nM.
In the same order, the values of `CCOc1ccc(Nc2nccc(C(=O)Nc3cnccc3-c3ccccc3)n2)cc1` [Example 7, 2-((4-Ethoxyphenyl)amino)-N-(4-phenylpyridin-3-yl)pyrimidine-4-carboxamide] are 16 nM, 140 nM and 1.1 nM.
In the case of `Cc1cc(Nc2nccc(C(=O)Nc3cnccc3-c3ccccc3)n2)ccn1` [Example 36, 2-((2-Methylpyridin-4-yl)amino)-N-(4-phenylpyridin-3-yl)pyrimidine-4-carboxamide], the IC50 was 0.84 nM at GSK3β, 36 nM in the test on pTau and 0.55 nM on GSK3α.
Take `CC(C)(C)CNc1nccc(C(=O)Nc2cncnc2OCC(F)(F)F)n1` [Example 189, 2-(Neopentylamino)-N-(4-(2,2,2-trifluoroethoxy)pyrimidin-5-yl)pyrimidine-4-carboxamide]: the concentration for half-maximal inhibition (IC50) at GSK3β (setting [1]) stood at 1.43 nM; in the test on pTau it was 410 nM; at GSK3α, 0.8 nM.
The corresponding values for `N#Cc1ccc(Nc2nccc(C(=O)Nc3cnccc3-c3ccccc3)n2)c(Cl)c1` [Example 24, 2-((2-Chloro-4-cyanophenyl)amino)-N-(4-phenylpyridin-3-yl)pyrimidine-4-carboxamide] are 3.8 nM, 170 nM and 1.6 nM.
Consider `O=C(Nc1cnccc1OCC(F)(F)F)c1ccnc(NCc2ccccc2C(F)(F)F)n1` [Example 137, N-(4-(2,2,2-Trifluoroethoxy)pyridin-3-yl)-2-((2-(trifluoromethyl)benzyl)amino)pyrimidine-4-carboxamide], for which the IC50 is 4.1 nM on GSK3β (setting [1]), 350 nM in the test on pTau and 2.3 nM at GSK3α.
With `CC(C)OCCCNc1nccc(C(=O)Nc2cnccc2-c2ccccc2)n1` [Example 42, 2-((3-Isopropoxypropyl)amino)-N-(4-phenylpyridin-3-yl)pyrimidine-4-carboxamide], the IC50 at GSK3β (setting [1]) came to 0.88 nM; with pTau it was 93 nM; at GSK3α it was 0.59 nM.
On to `O=C(Nc1cnccc1-c1ccccc1)c1ccnc(NC2CCCOC2)n1` (stereo not drawn) [Example 94, N-(4-Phenylpyridin-3-yl)-2-((tetrahydro-2H-pyran-3-yl)amino)pyrimidine-4-carboxamide], for which the IC50 on GSK3β (setting [1]) is 5.1 nM; in the test with pTau it was 210 nM; on GSK3α it was 3.5 nM.
In the same order, the values of `O=C(Nc1cnccc1OCC(F)(F)F)c1ccnc(NCc2ccc(F)cc2)n1` [Example 131, 2-((4-Fluorobenzyl)amino)-N-(4-(2,2,2-trifluoroethoxy)pyridin-3-yl)pyrimidine-4-carboxamide] are 1.8 nM, 160 nM and 2.2 nM.
In the case of `O=C(Nc1cncnc1OCC(F)(F)F)c1ccnc(Nc2ccc(Cl)cc2)n1` [Example 67, 2-((4-Chlorophenyl)amino)-N-(4-(2,2,2-trifluoroethoxy)pyrimidin-5-yl)pyrimidine-4-carboxamide], the values for the half-inhibitory concentration (IC50) at GSK3β (setting [1]), with pTau and on GSK3α were 0.97 nM, 90 nM and 0.36 nM, respectively.
Turning to `O=C(Nc1cnccc1OCC(F)(F)F)c1ccnc(NCc2ccc(C(F)(F)F)cc2)n1` [Example 134, N-(4-(2,2,2-Trifluoroethoxy)pyridin-3-yl)-2-((4-(trifluoromethyl)benzyl)amino)pyrimidine-4-carboxamide], the IC50 worked out at 2.8 nM at GSK3β (setting [1]), 310 nM in the test on pTau and 5.4 nM at GSK3α.
With `O=C(Nc1cncnc1N1CCOCC1)c1ccnc(NCC2CCC2)n1` [Example 203, 2-((Cyclobutylmethyl)amino)-N-(4-morpholinopyrimidin-5-yl)pyrimidine-4-carboxamide], the IC50 worked out at 8.7 nM at GSK3β, 600 nM in the test on pTau and 6.1 nM on GSK3α.
As to `COc1cc(Nc2nccc(C(=O)Nc3cnccc3-c3ccccc3)n2)ccn1` [Example 37, 2-((2-Methoxypyridin-4-yl)amino)-N-(4-phenylpyridin-3-yl)pyrimidine-4-carboxamide], the IC50 at GSK3β (setting [1]) is 0.54 nM; in the test on pTau, 33 nM; at GSK3α it was 0.51 nM.
`O=C(Nc1cnccc1-c1ccccc1)c1ccnc(Nc2ccc(Cl)cc2F)n1` [Example 26, 2-((4-Chloro-2-fluorophenyl)amino)-N-(4-phenylpyridin-3-yl)pyrimidine-4-carboxamide]: the 50% inhibitory concentration (IC50) stood at 0.57 nM at GSK3β (setting [1]), 110 nM in the test on pTau and 0.33 nM on GSK3α.
For the compound `O=C(Nc1cnccc1-c1ccc(F)cc1)c1ccnc(Nc2ccc(C(F)(F)F)cc2)n1` [Example 47, N-(4-(4-Fluorophenyl)pyridin-3-yl)-2-((4-(trifluoromethyl)phenyl)amino)pyrimidine-4-carboxamide], the half-inhibitory concentration (IC50) came out at 2.1 nM on GSK3β (setting [1]), 100 nM in the test with pTau and 0.7 nM on GSK3α.
In the same order, the values of `Cc1ccccc1-c1cccc(Nc2nccc(C(=O)Nc3cncnc3)n2)c1` [Example 196, 2-((2′-Methyl-[1,1′-biphenyl]-3-yl)amino)-N-(pyrimidin-5-yl)pyrimidine-4-carboxamide] are 5.2 nM, 840 nM and 3.9 nM.
On to `Nc1nccc(C(=O)Nc2cnccc2N2CCC(F)(F)CC2)n1` [Example 2, 2-Amino-N-(4-(4,4-difluoropiperidin-1-yl)pyridin-3-yl)pyrimidine-4-carboxamide], for which the results for the half-maximal inhibitory concentration (IC50) at GSK3β (setting [1]), with pTau and on GSK3α were 30 nM, 1100 nM and 18 nM, respectively.
